Assay results from ChEMBL document CHEMBL2029203, “Discovery of potent antimicrobial peptide analogs of Ixosin-B” (Bioorg Med Chem Lett, 2012).
Converted amounts (≈) assume the structure as drawn. Residues, ends and D or L forms follow the SMILES beside them.

How the values were obtained:
Escherichia coli [1] = test: Antimicrobial activity against Escherichia coli ATCC 25922 after 18 to 20 hrs by spectrophotometry; assay type: functional
Staphylococcus aureus [2] = test: Antimicrobial activity against Staphylococcus aureus ATCC 25923 after 18 to 20 hrs by spectrophotometry; assay type: functional
Pseudomonas aeruginosa = test: Antimicrobial activity against Pseudomonas aeruginosa ATCC 27853 after 18 to 20 hrs by spectrophotometry; assay type: functional
[3] = Toxicity against human erythrocytes assessed as hemolysis at 100 uM after 1 hr by spectrophotometry; assay type: cell-based, Erythrocyte; conditions: read-out: Activity
Escherichia coli [4] = test: Antimicrobial activity against Escherichia coli; assay type: functional
Staphylococcus aureus [5] = test: Antimicrobial activity against Staphylococcus aureus; assay type: functional
Candida albicans = test: Antimicrobial activity against Candida albicans; assay type: functional

Structure (SMILES) | MIC (Escherichia coli [1]) | MIC (Staphylococcus aureus [2]) | MIC (Pseudomonas aeruginosa) | hemolysis at 1 h, 100 µM [3] | MIC (Escherichia coli [4]) | MIC (Staphylococcus aureus [5]) | MIC (Candida albicans)
CC(C)[C@H](NC(=O)[C@H](CC(=O)O)NC(=O)[C@H](CO)NC(=O)[C@@H](N)CCCCN)C(=O)N[C@@H](CCCNC(=N)N)C(=O)N[C@@H](CCCNC(=N)N)C(=O)N[C@@H](Cc1c[nH]c2ccccc12)C(=O)N[C@@H](CCCNC(=N)N)C(=O)N[C@@H](CO)C(=O)N[C@@H](CCCNC(=N)N)C(=O)N[C@@H](Cc1ccc(O)cc1)C(N)=O (H-KSDVRRWRSRY-NH2) | > 100 µM | > 100 µM | > 100 µM | – | – | – | –
CC(C)C[C@H](NC(=O)[C@H](CCCNC(=N)N)NC(=O)[C@@H](N)CCCCN)C(=O)N[C@@H](CCCNC(=N)N)C(=O)N[C@@H](CCCNC(=N)N)C(=O)N[C@H](C(=O)N[C@@H](Cc1c[nH]c2ccccc12)C(=O)N[C@@H](CCCNC(=N)N)C(=O)N[C@@H](CCCNC(=N)N)C(=O)N[C@@H](Cc1c[nH]c2ccccc12)C(=O)N[C@@H](CCCNC(=N)N)C(N)=O)C(C)C (H-KRLRRVWRRWR-NH2) | 30 µM (≈ 50 µg/mL) | 5 µM (≈ 8.34 µg/mL) | 20 µM (≈ 33.3 µg/mL) | 3% | – | – | –
CC[C@H](C)[C@H](NC(=O)CNC(=O)[C@H](CO)NC(=O)[C@H](CCCNC(=N)N)NC(=O)[C@@H](NC(=O)CNC(=O)[C@H](Cc1c[nH]c2ccccc12)NC(=O)[C@@H](N)CC(C)C)[C@@H](C)O)C(=O)N[C@@H](CCC(N)=O)C(=O)N1CCC[C@H]1C(=O)N[C@@H](CCC(=O)O)C(=O)N[C@@H](CCC(N)=O)C(=O)N[C@@H](Cc1cnc[nH]1)C(N)=O (H-LWGTRSGIQPEQH-NH2) | > 100 µM | > 100 µM | > 100 µM | – | – | – | –
CC(C)C[C@H](NC(=O)[C@H](CO)NC(=O)[C@@H](N)CCCCN)C(=O)N[C@H](C(=O)N[C@@H](CCCNC(=N)N)C(=O)N[C@@H](CCCNC(=N)N)C(=O)N[C@@H](Cc1c[nH]c2ccccc12)C(=O)N[C@@H](CCCNC(=N)N)C(=O)N[C@@H](CO)C(=O)N[C@@H](CCCNC(=N)N)C(=O)N[C@@H](Cc1c[nH]c2ccccc12)C(N)=O)C(C)C (H-KSLVRRWRSRW-NH2) | 30 µM (≈ 45.9 µg/mL) | 30 µM (≈ 45.9 µg/mL) | 40 µM (≈ 61.2 µg/mL) | 0% | – | – | –
CC1(C)S[C@@H]2[C@H](NC(=O)Cc3ccccc3)C(=O)N2[C@H]1C(=O)O [PENICILLIN G] | > 100 µM | 0.5 µM (≈ 0.167 µg/mL) | > 100 µM | – | – | – | –
CC(C)C[C@H](NC(=O)[C@H](CO)NC(=O)[C@@H](N)CCCCN)C(=O)N[C@@H](CCCNC(=N)N)C(=O)N[C@@H](CCCNC(=N)N)C(=O)N[C@H](C(=O)N[C@@H](Cc1c[nH]c2ccccc12)C(=O)N[C@@H](CCCNC(=N)N)C(=O)N[C@@H](CO)C(=O)N[C@@H](Cc1c[nH]c2ccccc12)C(=O)N[C@@H](CCCNC(=N)N)C(N)=O)C(C)C (H-KSLRRVWRSWR-NH2) | 30 µM (≈ 45.9 µg/mL) | 60 µM (≈ 91.7 µg/mL) | 40 µM (≈ 61.2 µg/mL) | 0% | – | – | –
CC(C)[C@H](NC(=O)[C@H](CC(=O)O)NC(=O)[C@H](CO)NC(=O)[C@H](CCCCN)NC(=O)CNC(=O)[C@H](CO)NC(=O)[C@H](CO)NC(=O)[C@H](Cc1cnc[nH]1)NC(=O)[C@@H](N)CCC(N)=O)C(=O)N[C@@H](CCCNC(=N)N)C(=O)N[C@@H](CCCNC(=N)N)C(=O)N[C@@H](Cc1c[nH]c2ccccc12)C(N)=O (H-QHSSGKSDVRRW-NH2) | > 100 µM | > 100 µM | > 100 µM | – | – | – | –
CC[C@H](C)[C@H](NC(=O)CNC(=O)[C@H](CO)NC(=O)[C@H](CCCNC(=N)N)NC(=O)[C@@H](NC(=O)CNC(=O)[C@H](Cc1c[nH]c2ccccc12)NC(=O)[C@H](CC(C)C)NC(=O)[C@H](CC(=O)O)NC(=O)[C@@H](NC(=O)[C@H](CCCCN)NC(=O)[C@H](CC(C)C)NC(=O)[C@@H](N)CCC(N)=O)C(C)C)[C@@H](C)O)C(N)=O (H-QLKVDLWGTRSGI-NH2) | > 100 µM | > 100 µM | > 100 µM | – | – | – | –
CC[C@H](C)[C@H](NC(=O)CNC(=O)[C@H](CO)NC(=O)[C@H](CCCNC(=N)N)NC(=O)[C@@H](NC(=O)CNC(=O)[C@H](Cc1c[nH]c2ccccc12)NC(=O)[C@H](CC(C)C)NC(=O)[C@H](CC(=O)O)NC(=O)[C@@H](NC(=O)[C@H](CCCCN)NC(=O)[C@H](CC(C)C)NC(=O)[C@@H](N)CCC(N)=O)C(C)C)[C@@H](C)O)C(=O)N[C@@H](CCC(N)=O)C(=O)N1CCC[C@H]1C(=O)N[C@@H](CCC(=O)O)C(=O)N[C@@H](CCC(N)=O)C(=O)N[C@@H](Cc1cnc[nH]1)C(=O)N[C@@H](CO)C(=O)N[C@@H](CO)C(=O)NCC(=O)N[C@@H](CCCCN)C(=O)N[C@@H](CO)C(=O)N[C@@H](CC(=O)O)C(=O)N[C@H](C(=O)N[C@@H](CCCNC(=N)N)C(=O)N[C@@H](CCCNC(=N)N)C(=O)N[C@@H](Cc1c[nH]c2ccccc12)C(=O)N[C@@H](CCCNC(=N)N)C(=O)N[C@@H](CO)C(=O)N[C@@H](CCCNC(=N)N)C(=O)N[C@@H](Cc1ccc(O)cc1)C(N)=O)C(C)C [Ixosin-B-amide] (H-QLKVDLWGTRSGIQPEQHSSGKSDVRRWRSRY-NH2) | 80 µM (≈ 305 µg/mL) | 80 µM (≈ 305 µg/mL) | > 80 µM | 0% | 15 µg/mL (≈ 3.93 µM) | 2.5 µg/mL (≈ 0.656 µM) | 7.5 µg/mL (≈ 1.97 µM)
CC(C)C[C@H](NC(=O)[C@H](Cc1c[nH]c2ccccc12)NC(=O)[C@@H](N)CCCCN)C(=O)N[C@@H](CCCNC(=N)N)C(=O)N[C@@H](CCCNC(=N)N)C(=O)N[C@H](C(=O)N[C@@H](Cc1c[nH]c2ccccc12)C(=O)N[C@@H](CCCNC(=N)N)C(=O)N[C@@H](Cc1c[nH]c2ccccc12)C(=O)N[C@@H](Cc1c[nH]c2ccccc12)C(=O)N[C@@H](CCCNC(=N)N)C(N)=O)C(C)C (H-KWLRRVWRWWR-NH2) | 15 µM (≈ 25.9 µg/mL) | 2.5 µM (≈ 4.32 µg/mL) | 20 µM (≈ 34.5 µg/mL) | 100% | – | – | –
